From patent US8927728B2, “Dipeptide acetylene conjugates and a method for photocleavage of double strand DNA by dipeptide acetylene conjugates” (The Florida State University Research Foundation, Inc., priority 2011, dated 2015)
Where a name gives a salt, the structure may show the parent alone. Marks after values point to notes of the source that are not given here.

Experiments:
[1] = Fluorescence quenching by triethylamine (Stern-Volmer); format: physicochemical; settings: Et3N as a quencher; determined from Ksv and singlet lifetime
Procedure: The fluorescence quenching by triethylamine (Et3N) was tested in order to gauge relative efficiencies of these compounds as DNA photo-oxidizers. […] The measured singlet lifetimes allowed us to determine the quenching rate constant, kq, which in this system, should be very close in magnitude to the rate of electron transfer, kET. The 2-3-fold increase in the rate of electron transfer from Et3N to excited singlet state of the meta- and ortho-isomers in comparison to the para-isomer is consistent with the well-known photochemical ortho, meta effect of an acceptor substituent. See Zimmerman, H. E., The Meta Effect in Organic Photochemistry: Mechanistic and Exploratory Organic Photochemistry, J. Am. Chem. Soc., 1995, 117, 8988-8991. doi: 10.1021/ja00140a014 and Zimmerman, H. E.; Alabugin, I. V. J. Am. Chem. Soc. 2001, […]. doi: 10.1021/ja002402c.

[2] = from Carey, Organic Chemistry, 6th ed.; cited from earlier work
pBR322 plasmid DNA = experiment: Plasmid relaxation assay for DNA photocleavage; format: biochemical; settings: 30 μM/base pair pBR322, pH 6, 7 and 8; for DNA cleavage efficiency: 15 μM lysine conjugate
Procedure: The present invention is additionally directed to methods of forming a double strand cleavage in DNA, wherein compounds having the above Structures are contacted with and bind to double stranded DNA. The pH-dependency of DNA-cleavage of the two bis-lysine conjugates was investigated. The top of FIGS. 6A and 6B depicts the results of the plasmid relaxation assay for DNA photocleavage with 15 μM of acetylenic conjugates (3) (FIG. 6A) and (5) (FIG. 6B) and […] (b.p.) of pBR322 plasmid DNA at pH range of 6-9 after 10 min. of UV (>310 nm) irradiation. The bottom of each of FIGS. 6A and 6B are graphs of quantified cleavage data as a function of pH for conjugates (3) (FIG. 6A) and (5) (FIG. 6B). The reported values represent the average of three experiments. Code: Form I, diamond; Form II, square; Form III, triangle.
The plasmid relaxation assay experiments were carried out on 15 μM of lysine conjugate with 30 μM/base pair of pBR322 plasmid DNA at pH 6, 7 and 8.
Plasmid DNA Photocleavage. pBR322 plasmid DNA (4,361 bp; from BioLabs Inc., 1 μg/μL solution in 10 mM Tris-HCl (pH 8.0), and 1mM EDTA buffer) was diluted to a concentration of 0.01 μg/μL. The solution containing cleavage agent, DNA (30 μM/bp) in 20 mM sodium phosphate buffer was incubated for 1 hour at 30° C. Samples were placed on ice at a distance of 20 cm from 200 W Hg—Xe lamp (Spectra-Physics, Laser & Photonics Oriel Instruments with long pass filter with 300 nm cut-on wavelength).
Electrophoretic Analysis. The gel electrophoresis was carried out in lx TBE buffer at 80 V using Miligel FisherBiotech Horizontal Electrophoresis System. All gels were run on 1% agarose slab gels. Before loading, the DNA samples were mixed with 0.33 volume of tracking dye containing bromophenol blue (0.25%) and glycerol (30%) in water. After staining in ethidium bromide solution (2 μg/mL) for 1 hour, the gel was washed with water and pictures were taken. The relative quantities of the supercoiled, nicked, and linear DNA were calculated by integrating the “area” of each spot by the image analyzer software Total/Lab (Nonlinear Dynamics Ltd., UK). […]

[3] = tested on: A375 cells (Human Melanoma); experiment: Cell proliferation (MTT) assay; format: cell-based; settings: A375, after 10 min UV irradiation at 360 nm
Procedure: The ability of compounds (15), (16), and (17) to inhibit cell proliferation in human melanoma cell lines was tested in the dark and under photoactivation. See FIGS. 9A and 9B, which depict cell proliferation assays in A375 cells (Human Melanoma) exposed to bis-lysine conjugates (15) (square), (16) (up-pointing triangle) and (17) (down-pointing triangle) in dark (FIG. 9A) and after 10 min. of UV (360 nm) irradiation (FIG. 9B).
MTT Assay. A375 cells were seeded at 2000 cells per well in a 96-well plate. Seven 2-fold serial dilutions of the compounds were added to the cells in triplicate. Concentrations were from 1 to 0.016 μM of compounds. After 4 hs of incubation with the compounds, cells were UV-irradiated for ten minutes at 365 nm (UV transluminator, Spectronomics Corp. model TR-365R). After 72hs of incubation, MTT (Sigma® cat#M2128) was added to cells to a final concentration of 1.25 mg/mL and incubated for 60 minutes. Cells were centrifuged at 900 g for 5 minutes at room temperature. Media was replaced with DMSO and absorbance will be measured in a plate reader at 570 nm.

DNA = settings: literature value; cited from earlier work

CC(=O)Nc1ccccc1C#Cc1c(F)c(F)nc(F)c1F [(5) (ortho), N-(2-((Perfluoropyridin-4-yl)ethynyl)phenyl) acetamide] gave a kq (quenching rate constant) [1] of 1.43e+10 M⁻¹ s⁻¹.

CC(=O)Nc1cccc(C#Cc2c(F)c(F)nc(F)c2F)c1 [(4) (meta), N-(3-((Perfluoropyridin-4-yl)ethynyl)phenyl)acetamide] gave a kq (quenching rate constant) [1] of 1.36e+10 M⁻¹ s⁻¹.

In the case of NCCCC[C@H](N)C(=O)O [Lysine], the pKa1 [2] is listed as 8.95^b and the pKa2 [2] is listed as 10.53^b.

For NCCCC[C@H](N)C(=O)Nc1cccc(C#Cc2c(F)c(F)nc(F)c2F)c1 [(16), (S)-2,6-Diamino-N-(3-((perfluoropyridin-4-yl)ethynyl)phenyl)hexanamide Dihydrochloride], the DNA cleavage efficiency (pBR322 plasmid DNA) was “less DNA cleavage than conjugate (15)”.

For NCCCC[C@H](N)C(=O)Nc1ccccc1C#Cc1c(F)c(F)nc(F)c1F [(17), (S)-2,6-Diamino-N-(2-((perfluoropyridin-4-yl)ethynyl)phenyl)hexanamide Dihydrochloride], the DNA cleavage efficiency (pBR322 plasmid DNA) was “least efficient DNA cleavage”, the double-strand breaks (pBR322 plasmid DNA; 15 μM) was “has not produced any double-strand breaks” and the phototoxicity [3] was “some phototoxicity”.

CC(=O)Nc1ccc(C#Cc2c(F)c(F)nc(F)c2F)cc1 [(3) (para), N-(4-((Perfluoropyridin-4-yl)ethynyl)phenyl)acetamide] gave a kq (quenching rate constant) [1] of 5.64e+09 M⁻¹ s⁻¹.

For calicheamicin, the “double strand breaks formed” value (DNA) is given as 25-33%.
